The test system of data set [1] is Jurkat human leukemia T cells. Put plainly: Inhibition of Jurkat human leukemia T cell proliferation (MTT reduction). In kind it is cell-based. Particulars: 100 μg/ml sequence, 48 h, 2.5×10^5 cells/ml. An outline of the steps:
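Jurkat cells at 2.5×10^5 cells/ml exposed to 100 μg/ml of 2–45-base A/C/G/T sequences (0 μg/ml control) for 48 h, 37° C, 5% CO2. Viability by MTT reduction read at 570 nm.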

The subject of data set [2] is LNCaP human prostate cancer cells. Put plainly: Inhibition of LNCaP cell proliferation (MTT). In kind it is cell-based. Particulars: 100 μg/ml, 48 h, 5×10^5 cells/ml. The protocol:
(§1) Cells were seeded in 6 (1 ml/well), 24 (0.5 ml/well) or 96 (0.1 ml/well) well flat-bottom microplates and were maintained at 37° C. in a 5% CO2 atmosphere. Unless stated otherwise, 2.5×10^5 cells/ml were incubated with 0 μg/ml (control) and 100 μg/ml (treated) of 2 to 45 base sequences containing A, C, G and T for 48 h.
(§2) Cell proliferation was measured using dimethylthiazol-diphenyl-tetrazolium (MTT) reduction (Mosman et al. J. Immunol. Methods 65:55, 1983). MTT was measured at a wavelength of 570 nm using a multiplate spectrophotometer reader (ELX800, Bio-TEK Instruments Inc., Winooski, Vt.).
LNCaP prostate cancer cells are a TGF-beta 1 receptor negative, […], metastatic human solid tumor model. LNCaP cells (5×10^5 cells/ml) were incubated with 6 base GT sequences (Table 9).

The test system of data set [3] is THP-1 human acute monocytic leukemia cells. Put plainly: Cytokine production by THP-1 cells (ELISA). In kind it is cell-based. Particulars: THP-1, 1×10^6 cells, 100 μg/ml, 48 h; for ↑ IL-12 (fold increase treated vs control cells): p70 complex and free p40. An outline of the steps:
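1×10^6 cells exposed to 100 μg/ml of each oligonucleotide sequence for 48 h at 37° C in 5% CO2, unless stated otherwise. Cytokines quantified in culture supernatant by ELISA, IL-12 assay detecting both p70 and free p40; values are fold increase over untreated control cells.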
For orientation: ELISA stands for enzyme-linked immunosorbent assay.

Data set [4] deals with MCF-7 human breast cancer cells. Put plainly: Inhibition of MCF-7 cell proliferation (MTT). In kind it is cell-based. The following applies: 100 μg/ml, 48 h, 5×10^5 cells/ml. The protocol:
as §1, §2
MCF-7 human breast cancer cells are a caspase 3 negative, estrogen-dependent human solid tumor model. MCF-7 cells (5×10^5 cells/ml) were incubated with 3 and 6 base GT sequences (Table 7).

The subject of data set [5] is caspase 3 and caspase 7. Put plainly: Caspase 3 and caspase 7 activation by peptide-sequence constructs in Jurkat cells. In kind it is cell-based, human. Particulars: 72 h, present-tense example. The protocol: Reactive carboxylate and reactive amine groups are deprotected subsequent to conjugation,
To determine caspase activation, control and treated cells are washed, fixed, permeabilized and incubated with an FITC-conjugated antibody that recognizes the active form of the caspase (Pharmingen, San Diego, Calif.) using the conditions recommended by the manufacturer. Fluorescence associated with active caspase 3 is analyzed by flow cytometry on a FACSCALIBUR using the program CellQUEST (Becton Dickinson). Alternatively, caspase activation is determined colorimetrically using an assay based on the cleavage of a caspase-specific peptide conjugated to the color reporter molecule p-nitroanilide, which can be quantitated spectrophotometrically at a wavelength of 405 nm.
Jurkat human leukemia T cells are incubated for 72 h with NH2—YVAD-CO-GG(GT)GG, NH2-DEVD-CO-GG(GT)GG, NH2—EGD-COO-GG(GT)GG, NH2-YVAD-CO-[…], NH2-DVED-CO-[…] and NH2—IEGD-CO-[…]. Caspase 3 and caspase 7 activation are determined.

Data set [6] concerns PC-3 human prostate cancer cells. The data set is described as follows: Inhibition of PC-3 cell proliferation (MTT). In kind it is cell-based. The following applies: 100 μg/ml, 48 h, 5×10^5 cells/ml. The protocol: as §1, §2
PC-3 prostate cancer cells are a p53 mutated, androgen-independent human solid tumor model. PC-3 cells (5×10^5 cells/ml) were incubated with 3 and 6 base GT sequences (Table 8).

Data set [7] concerns Jurkat human leukemia T cells. The data set is described as follows: Apoptosis by phosphatidylserine/annexin V-FITC flow cytometry. In kind it is cell-based. The following applies: 50 μM sequence. The protocol:
(§3) The redistribution of phosphatidylserine in the plasma membrane during apoptosis was measured by flow cytometry using FITC-conjugated annexin V (BD Pharmingen, San Diego, Calif.). NuMA release into the supernatant was determined using a commercial ELISA kit (Oncogen/Calbiochem, Cambridge, Mass.).
Jurkat human leukemia T cells were incubated with 50 μM of 3, 4, 5, 6 and 7 GT base sequences, a 5 base ACGT sequence, 6 base AG, GG, AGT and CGT sequences and a 7 base GG sequence. […]
Jurkat human leukemia T cells were incubated with GT-rich or AC-rich sequences derived from the murA gene of Mycobacterium phlei (GenBank: Accession Number X99776). Inhibition of proliferation was measured by the reduction of MTT as in Example 3, cell cycle arrest was detected by flow cytometry using propidium iodide as in Example 21 and apoptosis was evaluated by flow cytometry using annexin-V-FITC as in Example 23.
Background: Flow cytometry measures light scatter and fluorescence of single cells or particles in a stream.

In data set [8] the test system is Jurkat human leukemia T cells. The data set is described as follows: NuMA release into supernatant (ELISA). In kind it is cell-based. The following applies: Jurkat, 50 μM sequence. The protocol: as §3
Jurkat human leukemia T cells were incubated with 50 μM of 3, 4, 5, 6 and 7 GT base sequences, a 5 base ACGT sequence, 6 base AG, GG, AGT and CGT sequences and a 7 base GG sequence.
Jurkat human leukemia T cells (1×10^6/ml) were incubated with 6 and 27 GT base sequences (Table 32). NuMA was determined as in Example 23.
Jurkat human cell leukemia T cells were incubated for 24 h with 6 base GT SEQ ID NO:25, complementary 6 base AC SEQ ID NO:79, and 6 base GT SEQ ID NO:25+6 base AC SEQ ID NO:79. GT SEQ ID NO:25 and AC SEQ ID NO:79 were hybridized by mixing the sequences (1:1) and heating for 10 minutes at 65° C. As controls, GT SEQ ID NO:25 and AC SEQ ID NO:79 were heated for 10 minutes at 65° C. (Table 33). Apoptosis was evaluated as in Example 23.

Data set [9] relates to CF-51 canine mammary gland cancer cells. Put plainly: Inhibition of CF-51 cell proliferation (MTT). In kind it is cell-based. Particulars: 100 μg/ml, 48 h, 5×10^5 cells/ml. The protocol: as §1, §2
(§4) D-17 canine osteosarcoma cells and CF-51 canine mammary gland cancer cells are solid tumor models. D-17 canine osteosarcoma cells (5×10^5 cells/ml) (Table 20) and CF-51 canine mammary gland cancer cells (5×10^5 cells/ml) (Table 21) were incubated with 6, 9, 17, 27 and 33 base GT-sequences and with a 15 base ACG sequence.

Data set [10] deals with D-17 canine osteosarcoma cells. The data set is described as follows: Inhibition of D-17 cell proliferation (MTT). In kind it is cell-based. Particulars: 100 μg/ml, 48 h, 5×10^5 cells/ml. The protocol:
as §1, §2, §4

As for “TTTGTT [SEQ ID NO:23 phosphorothioate] (phosphorothioate backbone)”, the “% INHIBITION of Jurkat human leukemia T cell proliferation” value in [1] was 4%. The “% INHIBITION of LNCaP human prostate cancer cell proliferation” value in data set [2] is −11%. Moreover, the “↑ IL-12 (fold increase treated vs control cells)” value in data set [3] was 0.1x. For the same substance, the “% INHIBITION of MCF-7 human breast cancer cell proliferation” value in data set [4] is 8%.
Consider NH2—YVAD-CO-GG(GT)GG [NH2—YVAD-CO-GT], for which, in data set [5], the “processing of inactive caspase 3 and caspase 7 to active forms” value (“processing” below) is “induce processing of inactive caspase 3 to active caspase 3 and of inactive caspase 7 to active caspase 7”.
With “NH2-YVAD-CO-AACCACAAGCCCAAC [NH2—YVAD-CO-ACG]”, the “processing” value in data set [5] was “do not induce processing of inactive pro-caspase 3 to active caspase 3 or of inactive caspase 7 to active caspase 7”.
Consider “TGTGTG [SEQ ID NO:9 phosphorothioate] (phosphorothioate backbone)”, for which, in data set [1], the “% INHIBITION of Jurkat human leukemia T cell proliferation” value was −17%. Also, in [2], the “% INHIBITION of LNCaP human prostate cancer cell proliferation” value was −16%. Besides, the “↑ IL-12 (fold increase treated vs control cells)” value in data set [3] is on record as −0.1x. Further, the “% INHIBITION of MCF-7 human breast cancer cell proliferation” value in data set [4] was found to be 6%.
On to “NH2—IEGD-CO-AACCACAAGCCCAAC [NH2—IEGD-CO-ACG]”, for which the “processing” value in data set [5] was “do not induce processing of inactive pro-caspase 3 to active caspase 3 or of inactive caspase 7 to active caspase 7”.
For NH2-DEVD-CO-GG(GT)GG [NH2-DEVD-CO-GT], in [5], the “processing” value was “induce processing of inactive caspase 3 to active caspase 3 and of inactive caspase 7 to active caspase 7”.
Consider TTGTTT [SEQ ID NO:26 phosphorothioate], for which the “% INHIBITION of Jurkat human leukemia T cell proliferation” value in data set [1] amounted to 0%. Moreover, the “% INHIBITION of LNCaP human prostate cancer cell proliferation” value in data set [2] is −1%. Besides, the “↑ IL-12 (fold increase treated vs control cells)” value in data set [3] is −0.1x. Also, the “% INHIBITION of MCF-7 human breast cancer cell proliferation” value in data set [4] is recorded as 6%.
Turning to “TGT (chemistry not given here) [SEQ ID NO:7]”, the “% INHIBITION of PC-3 human prostate cancer cell proliferation” value in [6] came out at 8%. The “% INHIBITION of Jurkat human leukemia T cell proliferation” value in data set [1] is given as 22%. In data set [7], the “% of cells in apoptosis (positive for PS/A-V staining)” value amounted to 10%. Moreover, in data set [3], the “↑ IL-6 (fold increase treated vs control cells)” value is given as 2.7x. Further, the “% INHIBITION of MCF-7 human breast cancer cell proliferation” value in [4] is given as −6%. In data set [8], the “% NuMA released (treated vs untreated cells)” value is 35%.
Turning to “NH2-DVED-CO-AACCACAAGCCCAAC [NH2-DVED-CO-ACG]”, in data set [5], the “processing” value is “do not induce processing of inactive pro-caspase 3 to active caspase 3 or of inactive caspase 7 to active caspase 7”.
Turning to GTGTGT [SEQ ID NO:10 phosphorothioate], in data set [1], the “% INHIBITION of Jurkat human leukemia T cell proliferation” value was found to be 0%. In addition, the “% INHIBITION of LNCaP human prostate cancer cell proliferation” value in data set [2] is −20%. Moreover, in data set [3], the “↑ IL-12 (fold increase treated vs control cells)” value is −0.2x. In addition, the “% INHIBITION of MCF-7 human breast cancer cell proliferation” value in [4] came to 12%.
With NH2—EGD-COO-GG(GT)GG [NH2—IEGD-COO-GT], the “processing” value in data set [5] was “induce processing of inactive caspase 3 to active caspase 3 and of inactive caspase 7 to active caspase 7”.
For GGTGGG [SEQ ID NO:24 phosphorothioate], in data set [1], the “% INHIBITION of Jurkat human leukemia T cell proliferation” value turned out to be 6%. In data set [2], the “% INHIBITION of LNCaP human prostate cancer cell proliferation” value was −17%. Also, the “↑ IL-12 (fold increase treated vs control cells)” value in data set [3] is on record as −0.1x. In addition, the “% INHIBITION of MCF-7 human breast cancer cell proliferation” value in [4] was 12%.
As to “TGTGTGTGTGTGTGTGTG (unmodified DNA) [SEQ ID NO:17]”, in [1], the “% INHIBITION of Jurkat human leukemia T cell proliferation” value is 56%. For the same substance, the “% INHIBITION of CF-51 canine mammary gland cancer cell proliferation” value in data set [9] stood at 8%. The “↑ IL-6 (fold increase treated vs control cells)” value in data set [3] was 2.2x. In addition, the “% INHIBITION of D-17 canine osteosarcoma cell proliferation” value in [10] stood at 8%.
